Data as given in patent publication US5438052A, “Cephalosporin derivatives” (Hoffmann-La Roche Inc., priority 1991, dated 1995).
Converted amounts (≈) assume the structure as drawn. Like-named read-outs stand apart in the source and are kept apart here.

Experiments:
[1] = test system: C. freundii 902; experiment: Minimum inhibitory concentration in vitro, agar dilution method; format: cell-based; conditions: Citrobacter freundii
Excerpt: (§1) 1. Minimum Inhibitory Concentration in vitro
(§2) The activities ascertained, minimum inhibitory concentration (MIC) in μg/ml, are compiled in Table 1 hereinafter: […]

[2] = test system: E. cloacae 908R; experiment: as above; format: cell-based; conditions: Enterobacter cloacae
Excerpt: as §1, §2

[3] = test system: E. cloacae 908SSi; experiment: as above; format: cell-based; conditions: Enterobacter cloacae
Excerpt: as §1, §2

[4] = test system: E. cloacae P99; experiment: as above; format: cell-based; conditions: Enterobacter cloacae
Excerpt: as §1, §2

[5] = test system: E. coli 25922; experiment: as above; format: cell-based; conditions: Escherichia coli
Excerpt: as §1, §2

[6] = test system: K. oxytoca 1082; experiment: as above; format: cell-based; conditions: Klebsiella oxytoca
Excerpt: as §1, §2

[7] = test system: K. pneumoniae 418; experiment: as above; format: cell-based; conditions: Klebsiella pneumoniae
Excerpt: as §1, §2

[8] = test system: P. aeruginosa 27853; experiment: as above; format: cell-based; conditions: Pseudomonas aeruginosa
Excerpt: as §1, §2

[9] = test system: P. aeruginosa 799/61; experiment: as above; format: cell-based; conditions: Pseudomonas aeruginosa
Excerpt: as §1, §2

[10] = test system: P. aeruginosa 799/WT; experiment: as above; format: cell-based; conditions: Pseudomonas aeruginosa
Excerpt: as §1, §2

[11] = test system: P. aeruginosa BA; experiment: as above; format: cell-based; conditions: Pseudomonas aeruginosa
Excerpt: as §1, §2

[12] = test system: P. aeruginosa MK1184; experiment: as above; format: cell-based; conditions: Pseudomonas aeruginosa
Excerpt: as §1, §2

[13] = test system: P. mirabilis 2117; experiment: as above; format: cell-based; conditions: Proteus mirabilis
Excerpt: as §1, §2

[14] = test system: P. vulgaris 1028; experiment: as above; format: cell-based; conditions: Proteus vulgaris
Excerpt: as §1, §2

[15] = test system: S. aureus 6538; experiment: as above; format: cell-based; conditions: Staphylococcus aureus
Excerpt: as §1, §2

[16] = test system: S. marcescens 69438; experiment: as above; format: cell-based; conditions: Serratia marcescens
Excerpt: as §1, §2

[17] = test system: S. pyogenes 15; experiment: as above; format: cell-based; conditions: Streptococcus pyogenes
Excerpt: as §1, §2

[18] = test system: S. pneumoniae BA; experiment: as above; format: cell-based; conditions: Streptococcus pneumoniae
Excerpt: as §1, §2

[19] = test system: E. coli 25922; experiment: Experimental systemic septicaemia in the mouse; format: in vivo; conditions: Escherichia coli, 25922, sc, 96 h
Experimental: (§3) 2. Experimental systemic septicaemia in the mouse
(§4) An experimental systemic septicaemia was produced in albino mice weighing 16-20 g by intraperitoneally injecting into the experimental animals a sample of a dilute culture of the test organism which had been grown overnight. The sample administered is calculated such that the dosage administered is about 5-100 times greater than the dosage which is required to kill 50% of untreated experimental animals within 48 hours. The bacteria were injected as a suspension in the culture broth. Groups of 5 experimental animals each were used not only for the control, but also for the treatment for each dosage tested. The products in accordance with the invention were administered subcutaneously as a suspension in Tween 80 (2%), whereby the concentrations were chosen such that each experimental animal received 500 μl per administration. The respective concentrations were administered twice, namely 1 and 3 hours after the infection (in the case of P. aeruginosa three times, namely 1, 3 and 5 hours after the infection). The ED50 is that dosage which protects 50% of the experimental animals and was calculated by means of the Probit method on the basis of the survial rate after 4 days following the infection. The ED50 values in mg/kg s.c. (subcutaneous) for representatives of the class of substance in accordance with the invention are given in Table 2 hereinafter.

[20] = test system: Pseudomonas aeruginosa BA; experiment: Experimental systemic septicaemia in the mouse; format: in vivo; conditions: sc, 96 h
Experimental: as §3, §4

Row | SMILES | MIC [4] [µg/mL] | MIC [1]; 902 [µg/mL] | MIC ([2]; 908R) [µg/mL] | MIC ([3]; 908SSI) [µg/mL] | MIC [5]; 25922 [µg/mL] | MIC [6]; 1082 [µg/mL] | MIC [7]; 418 [µg/mL] | MIC [8]; 27853 [µg/mL] | MIC ([9]; 799/61) [µg/mL] | MIC ([10]; 799/WT) [µg/mL] | MIC [11] [µg/mL] | MIC ([12]; MK1184) [µg/mL] | MIC [13]; 2117 [µg/mL] | MIC [14]; 1028 [µg/mL] | MIC [15]; 6538 [µg/mL] | MIC [16]; 69438 [µg/mL] | MIC [17]; 15 [µg/mL] | ED50 [19] [mg/kg] | ED50 [20] [mg/kg] | also measured
1 | Cc1cc(SCC2=C(C(=O)O)N3C(=O)[C@@H](NC(=O)/C(=N\OC(C)(C)C(=O)NO)c4csc(N)n4)[C@H]3SC2)n2nc(CNS(=O)(=O)c3ccc(O)c(O)c3)nc2n1 [Example 1, (6R,7R)-7-[(Z)-2-(2-amino-4-thiazolyl)-2-[[(1-hydroxycarbamoyl)-1-methylethoxy]imino]acetamido]-3-[[[2-[(3,4-dihydroxybenzenesulphonamido)methyl]-5-methyl-s-triazolo[1.5-a]pyrimidin-7-yl]thio]methyl]-8-oxo-5-thia-1-azabicyclo[4.2.0]oct-2-ene-2-carboxylic acid] | 32 (≈ 37.7 µM) |  |  |  |  |  |  |  |  |  |  |  |  |  |  |  |  |  |  | MIC ([1]; C. freundii 902, agar dilution, read-out: MIC): 1 µg/mL (≈ 1.18 µM); MIC ([2]; E. cloacae 908R, agar dilution, read-out: MIC): 16 µg/mL (≈ 18.8 µM); MIC ([3]; E. cloacae 908SSi, agar dilution, read-out: MIC): 4 µg/mL (≈ 4.71 µM); MIC ([5]; E. coli 25922, agar dilution, read-out: MIC): 0.25 µg/mL (≈ 0.294 µM); MIC ([6]; K. oxytoca 1082, agar dilution, read-out: MIC): 0.5 µg/mL (≈ 0.588 µM); MIC ([7]; K. pneumoniae 418, agar dilution, read-out: MIC): 0.12 µg/mL (≈ 0.141 µM); MIC ([8]; P. aeruginosa 27853, agar dilution, read-out: MIC): 4 µg/mL (≈ 4.71 µM); MIC ([9]; P. aeruginosa 799/61, agar dilution, read-out: MIC): 0.25 µg/mL (≈ 0.294 µM); MIC ([10]; P. aeruginosa 799/WT, agar dilution, read-out: MIC): 0.5 µg/mL (≈ 0.588 µM); MIC ([11]; P. aeruginosa BA, agar dilution, read-out: MIC): 0.5 µg/mL (≈ 0.588 µM); MIC ([12]; P. aeruginosa MK1184, agar dilution, read-out: MIC): 4 µg/mL (≈ 4.71 µM); MIC ([13]; P. mirabilis 2117, agar dilution, read-out: MIC): 0.12 µg/mL (≈ 0.141 µM); MIC ([14]; P. vulgaris 1028, agar dilution, read-out: MIC): 0.5 µg/mL (≈ 0.588 µM); MIC ([15]; S. aureus 6538, agar dilution, read-out: MIC): 16 µg/mL (≈ 18.8 µM); MIC ([16]; S. marcescens 69438, agar dilution, read-out: MIC): 0.25 µg/mL (≈ 0.294 µM); MIC ([17]; S. pyogenes 15, agar dilution, read-out: MIC): 4 µg/mL (≈ 4.71 µM)
2 | Cc1cc(SCC2=C(C(=O)[O-])N3C(=O)[C@@H](NC(=O)/C(=N\OCS(=O)(=O)c4ccc(O)c(O)c4)c4csc(N)n4)[C@H]3SC2)n2nc(CNS(=O)(=O)c3ccc(O)c(O)c3)nc2n1.[Na+] [Example 3, (6R,7R)-7-[(Z)-2-(2-amino-4-thiazolyl)-2-[[[(3,4-dihydroxyphenyl)sulphonyl]methoxy]imino]acetamido]-3-[[[2-[(3,4-dihydroxybenzenesulphonamido)methyl]-5-methyl-s-triazolo[1,5-a]pyrimidin-7-yl]thio]methyl]-8-oxo-5-thia-1-azabicyclo[4.2.0]oct-2-ene-2-carboxylic acid sodium salt (1:1)] | 0.5 | 0.12 | 1 | 8 | < 0.1 | 0.25 | < 0.1 | 0.25 | < 0.1 | 0.12 | < 0.1 | < 0.1 | < 0.1 | < 0.1 | 32 | 0.12 | 4 | 0.1 | 0.04 | MIC [18]: 2 µg/mL
3 | Cc1cc(SCC2=C(C(=O)[O-])N3C(=O)[C@@H](NC(=O)/C(=N\OCS(=O)(=O)c4ccc(O)c(O)c4)c4csc(N)n4)[C@H]3SC2)n2nc(CS(=O)(=O)c3ccc(O)c(O)c3)nc2n1.[Na+] [Example 10, (6R,7R)-7-[(Z)-2-(2-amino-4-thiazolyl)-2-[[[(3,4-dihydroxyphenyl)sulphonyl]methoxy]imino]acetamido]-3-[[[2-[[(3,4-dihydroxyphenyl)sulphonyl]methyl]-5-methyl-s-triazolo[1,5-a]pyrimidin-7-yl]thio]methyl]-8-oxo-5-thia-1-azabicyclo[4.2.0]oct-2-ene-2-carboxylic acid sodium salt (1:1)] | 16 | 0.12 | 2 | 8 | < 0.1 | 4 | < 0.1 | < 0.1 | < 0.1 | < 0.1 | < 0.1 | < 0.1 | < 0.1 | < 0.1 | 32 | 0.12 | 4 | < 0.1 | 0.15 | 
